From US12281139B2, “Mogrosides, methods of obtaining the same, and uses” (The Coca-Cola Company, priority 2018, dated 2025)

What was measured:
Assay type in all cases: in vivo
[1] = Sensory evaluation of CC-00367 and CC-00371 vs Reb M 95% (trained sensory panel taste test, mock beverage samples, 400 ppm in water at 4° C.); conditions: mean panel score, from the time the sip is taken up to 1 minute
[2] = as above; conditions: mean panel score; for Bitter Aftertaste Intensity: bitter intensity 1 minute after tasting; for Overall Max Sweetness: from the time the sip is taken up to 1 minute; for Bitter Intensity In Mouth: maximum level of bitterness in mouth during 5 seconds; for Sweet Intensity In Mouth: maximum level of sweetness in mouth during 5 seconds; for Sweet Linger Intensity: sweet intensity 1 minute after tasting
Description: FIG. 1: Taste attribute comparison of CC-00371 and CC-00367 compared to Reb M 95% (all at 400 ppm) in water at 4° C.
(§1) The following mock beverage samples were prepared:
(§2) A trained sensory panel conducted the taste test. Samples were served at approximately 4° C. Panelists were instructed to take 1 sip of the sample, hold in mouth for 5 seconds, expectorate, and rate the given attributes. A 5 minute break was placed between each sample and panelists were instructed to cleanse their palates with at least 1 bite of unsalted cracker and 2 sips of filtered water. Samples were randomized within each session for each panelist.
(§3) The following attributes were evaluated: • Sweet taste intensity: maximum level of sweetness in mouth during 5 seconds • Bitter taste intensity: maximum level of bitterness in mouth during 5 seconds • Overall maximum sweet intensity: maximum sweet intensity experienced from the time the sip is taken up to 1 minute • Overall maximum bitter intensity: maximum sweet intensity experienced from the time the sip is taken up to 1 minute • Sweet linger intensity: sweet intensity 1 minute after tasting the sample • Bitter aftertaste intensity: bitter intensity 1 minute after tasting the sample
(§4) An ANOVA, with Sample as fixed effects and Panelist as random effects was used to determine significance between the samples for each attribute at the 90% and 95% Confidence Level, two-tailed. Fishers LSD was used to determine significant differences between mean scores.
The results are shown in Table 75 and depicted in FIG. 1: […]

[3] = Sensory evaluation of CC-00401 and CC-00403 vs 7% Sucrose (trained sensory panel taste test, mock beverage samples at 4° C.); parameters: Sweetness In Mouth / Sweetness Overall Max / Bitterness In Mouth / Bitterness Overall Max: scale not given here; conditions: mean ± standard deviation, test sweeteners 400 ppm in water, reference 7% sucrose
Description: as §1, §2, §3, §4

[4] = Sensory evaluation of CC-00436 vs 5% Sucrose (trained sensory panel taste test, mock beverages at 4° C.); parameters: Sweetness In Mouth / Sweetness Overall Max / Bitterness In Mouth / Bitterness Overall Max: scale not given here; conditions: mean ± standard deviation, CC-00436 400 ppm in water, reference 5% sucrose
Description: The following mock beverages were prepared: A trained sensory panel conducted the taste test. Samples were served at approximately 4° C. Panelists were instructed to take 1 sip of the sample, hold in mouth for 5 seconds, expectorate, and rate the given attributes. A 5 minute break was placed between each sample and panelists were instructed to cleanse their palates with at least 1 bite of unsalted cracker and 2 sips of filtered water. Samples were randomized within each session for each panelist. The following attributes were evaluated: • Sweet taste intensity: maximum level of sweetness in mouth during 5 seconds • Bitter taste intensity: maximum level of bitterness in mouth during 5 seconds • Overall maximum sweet intensity: maximum sweet intensity experienced from the time the sip is taken up to 1 minute • Overall maximum bitter intensity: maximum sweet intensity experienced from the time the sip is taken up to 1 minute • Sweet linger intensity: sweet intensity 1 minute after tasting the sample • Bitter aftertaste intensity: bitter intensity 1 minute after tasting the sample

Molecule	Overall Max Bitterness** [1]	Bitter Aftertaste Intensity [2]	Overall Max Sweetness [2]	Bitter Intensity In Mouth [2]	Sweet Intensity In Mouth [2]	Sweet Linger Intensity [2]	Bitterness In Mouth [3]	Bitterness Linger (~60 sec) [3]	Bitterness Overall Max [3]	Sweetness In Mouth [3]	Sweetness Linger (~60 sec) [3]	Sweetness Overall Max [3]	Bitterness In Mouth [4]	Bitterness Linger (~60 sec) [4]	Bitterness Overall Max [4]	Sweetness In Mouth [4]	Sweetness Linger (~60 sec) [4]	Sweetness Overall Max [4]
C[C@H](CC[C@@H](O[C@@H]1OC(CO[C@@H]2OC(CO)[C@@H](O)[C@H](O)C2O)C(O)[C@@H](O)C1O[C@@H]1OC(CO)[C@@H](O[C@@H]2OC(CO)[C@@H](O)[C@H](O)C2O)[C@H](O)C1O)C(C)(C)O)[C@H]1CC[C@@]2(C)C3CC=C4[C@@H](CC[C@H](O[C@@H]5OC(CO[C@@H]6OC(CO)[C@@H](O)[C@H](O)C6O)[C@@H](O)[C@H](O)C5O)C4(C)C)[C@]3(C)[C@H](O)C[C@]12C (stereo partly drawn) [CC-00367, mogro-3-O-[β-D-glucopyranosyl (1→6)-β-D-glucopyranoside]-24-O-{[(β-D-glucopyranosyl-(1→4))-β-D-glucopyranosyl-(1→2)]-[β-D-glucopyranosyl-(1→6)]-β-D-glucopyranoside}]	2.2 B	1.4 B	4.9 B	1.3 B	3.8 B	2.6 B	–	–	–	–	–	–	–	–	–	–	–	–
C[C@H](CC[C@@H](O[C@@H]1O[C@H](CO[C@@H]2O[C@H](CO[C@@H]3O[C@H](CO)[C@@H](O)[C@H](O)[C@H]3O)[C@@H](O)[C@H](O)[C@H]2O)[C@@H](O)[C@H](O)[C@H]1O[C@@H]1O[C@H](CO)[C@@H](O)[C@H](O)[C@H]1O)C(C)(C)O)[C@H]1CC[C@@]2(C)[C@@H]3CC=C4[C@@H](CC[C@H](O[C@@H]5O[C@H](CO[C@@H]6O[C@H](CO)[C@@H](O)[C@H](O)[C@H]6O)[C@@H](O)[C@H](O)[C@H]5O)C4(C)C)[C@]3(C)[C@H](O)C[C@]12C [CC-00403]	–	–	–	–	–	–	2.6 ± 3.0	2.2 ± 3.4	5.0 ± 3.4	6.3 ± 1.4	3.1 ± 2.5	7.0 ± 1.5	–	–	–	–	–	–
C[C@H](CC[C@@H](O[C@@H]1OC(CO[C@@H]2OC(CO)[C@@H](O)[C@H](O)C2O)C(O)[C@@H](O)C1O[C@@H]1OC(CO)[C@@H](O)[C@H](O)C1O)C(C)(C)O)[C@H]1CC[C@@]2(C)C3CC=C4[C@@H](CC[C@H](O[C@@H]5OC(CO[C@@H]6OC(CO[C@H]7OC(CO)[C@@H](O)[C@H](O)C7O)[C@@H](O)[C@H](O)C6O)[C@@H](O)[C@H](O)C5O)C4(C)C)[C@]3(C)[C@H](O)C[C@]12C (stereo partly drawn) [CC-00436, mogro-3-O-[α-D-glucopyranosyl-(1→6)-β-D-glucopyranosyl (1→6)-β-D-glucopyranoside]-24-O-{[β-D-glucopyranosyl-(1→2)]-[β-D-glucopyranosyl-(1→6)]-β-D-glucopyranoside}]	–	–	–	–	–	–	–	–	–	–	–	–	1.5 ± 1.9	0.7 ± 0.8	2.1 ± 1.7	5.2 ± 2.1	2.9 ± 2.5	5.7 ± 2.1
C[C@H](CC[C@@H](O[C@@H]1O[C@H](CO[C@@H]2O[C@H](CO)[C@@H](O)[C@H](O)[C@H]2O)[C@@H](O)[C@H](O)[C@H]1O[C@@H]1O[C@H](CO)[C@@H](O)[C@H](O)[C@H]1O)C(C)(C)O)[C@H]1CC[C@@]2(C)[C@@H]3CC=C4[C@@H](CC[C@H](O[C@@H]5O[C@H](CO[C@@H]6O[C@H](CO)[C@@H](O)[C@H](O)[C@H]6O)[C@@H](O)[C@H](O)[C@H]5O)C4(C)C)[C@]3(C)[C@H](O)C[C@]12C [Mog V]	1.1	0.4	8.5	0.5	7.0	3.5	–	–	–	–	–	–	–	–	–	–	–	–
C=C1C[C@@]23CC[C@H]4[C@@](C)(CCC[C@@]4(C)C(=O)O[C@@H]4O[C@H](CO)[C@@H](O)[C@H](O[C@@H]5O[C@H](CO)[C@@H](O)[C@H](O)[C@H]5O)[C@H]4O[C@@H]4O[C@H](CO)[C@@H](O)[C@H](O)[C@H]4O)[C@@H]2CC[C@]1(O[C@@H]1O[C@H](CO)[C@@H](O)[C@H](O[C@@H]2O[C@H](CO)[C@@H](O)[C@H](O)[C@H]2O)[C@H]1O[C@@H]1O[C@H](CO)[C@@H](O)[C@H](O)[C@H]1O)C3 [Reb M 95%, rebaudioside M, reference compound]	2.0 B	1.7 B	9.2 A	1.0 B	8.0 A	5.3 A	–	–	–	–	–	–	–	–	–	–	–	–
OC[C@H]1O[C@@](CO)(O[C@H]2O[C@H](CO)[C@@H](O)[C@H](O)[C@H]2O)[C@@H](O)[C@@H]1O [Sucrose, sucrose, reference compound]	–	–	–	–	–	–	2.3 ± 2.3	0.8 ± 1.1	2.8 ± 2.1	7.2 ± 0.9	2.1 ± 1.8	7.4 ± 0.8	0.15 ± 0.2	0.1 ± 0.1	0.3 ± 0.3	4.3 ± 2.1	1.6 ± 1.8	4.5 ± 1.9
mogro-3-O-[β-D-glucopyranosyl (1→6)-β-D-glucopyranoside]-24-O-{[β-D-glucopyranosyl-(1→2)]-[(β-D-glucopyranosyl-(1β3))-β-D-glucopyranosyl-(1β6)]-β-D-glucopyranoside} [CC-00371]	2.1 B	1.5 B	9.3 A	0.9 B	7.5 A	5.8 A	–	–	–	–	–	–	–	–	–	–	–	–
